Each block holds one compound with its values, some of them ahead of it.
Columns and labels:
Substance-P receptor = Substance-P receptor (Cavia porcellus, UniProt P30547); assay: Binding affinity for NK1 receptor in guinea pig lung was determined by using [125 I]-Bolton Hunter labeled SP
[1] = Partition coefficient (logP); type: physicochemical; conditions: octanol/water
[2] = The solubility in a […] phosphate buffer solution at pH 7.4; type: ADME
[3] = The pKa1 value for the compound was determined by titrating in an aqueous solution (ISA).; type: physicochemical; conditions: read-out: pKa1
[4] = The relative permeability was measured from transport studies using polycarbonate membranes and Dulbecco's modified eagle medium with 10% fetal bovine serum.; type: ADME
Rattus norvegicus = organism: Rattus norvegicus; assay: The relative metabolic stability at 10 uM concentration was determined using rat liver […] fortified with NADPH.; type: functional
[5] = The pKa2 value for the compound was determined by titrating in an aqueous solution (ISA).; type: physicochemical; conditions: read-out: pKa2
[6] = Partition coefficient (logD); type: physicochemical; conditions: octanol/water
Cavia porcellus = assay: The perorally administered compound was evaluated for percentage inhibition of capsaicin induced respiratory effects at 10 mg / kg concentration in guinea pig; conditions: po
[7] = The pKa3 value for the compound was determined by titrating in an aqueous solution (ISA).; type: physicochemical; conditions: read-out: pKa3

Chain of Substance-P receptor (P30547 whole entry): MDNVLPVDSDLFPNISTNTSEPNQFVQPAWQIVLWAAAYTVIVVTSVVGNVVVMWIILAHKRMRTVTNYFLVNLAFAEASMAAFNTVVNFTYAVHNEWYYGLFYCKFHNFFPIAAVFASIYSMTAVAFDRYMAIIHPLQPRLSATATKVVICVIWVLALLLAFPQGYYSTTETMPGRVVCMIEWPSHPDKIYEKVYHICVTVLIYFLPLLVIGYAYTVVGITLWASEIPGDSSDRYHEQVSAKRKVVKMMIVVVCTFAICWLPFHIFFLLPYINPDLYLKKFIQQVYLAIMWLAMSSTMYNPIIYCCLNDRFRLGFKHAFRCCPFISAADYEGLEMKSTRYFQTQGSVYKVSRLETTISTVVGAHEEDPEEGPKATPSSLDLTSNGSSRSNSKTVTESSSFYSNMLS

SMILES: COc1cccc(C2(C(N)=O)CCN(CCC3(c4ccc(Cl)c(Cl)c4)CCN(C(=O)c4cc(OC)c(OC)c(OC)c4)C3)CC2)c1 (configuration not stated)
IC50 (Substance-P receptor): 8.49 nM

SMILES: COc1ccc(C2(CCN3CCC(C(N)=O)(c4ccccc4)CC3)CCN(C(=O)c3cc(OC)c(OC)c(OC)c3)C2)cc1OC (configuration not stated)
IC50 (Substance-P receptor): 36.7 nM

SMILES: COc1cc(C(=O)N2CCC(CCN3CCC(C(N)=O)(c4ccccc4)CC3)(c3cccnc3)C2)cc(OC)c1OC (configuration not stated)
IC50 (Substance-P receptor): 567 nM

SMILES: COc1cc(C(=O)N2CCC(CCN3CCC(C(N)=O)(c4cccnc4)CC3)(c3ccc(Cl)c(Cl)c3)C2)cc(OC)c1OC (configuration not stated)
IC50 (Substance-P receptor): 8.14 nM

IC50 (Substance-P receptor): 4.51 nM
SMILES: COc1cc(C(=O)N2CCC(CCN3CCC(C(=O)N4CCN(C)CC4)(c4ccccc4)CC3)(c3ccc(Cl)c(Cl)c3)C2)cc(OC)c1OC (configuration not stated)

SMILES: COc1cc(C(=O)N2CCC(CCN3CCC(C(N)=O)(c4ccccc4)CC3)(c3ccc(Cl)c(Cl)c3)C2)cc(OC)c1OC (configuration not stated)
IC50 (Substance-P receptor): 5.88 nM

IC50 (Substance-P receptor): 23.2 nM
SMILES: COc1cc(C(=O)N2CCC(CCN3CCC(C(=O)N4CCCCC4)(c4ccccc4)CC3)(c3ccc(Cl)c(Cl)c3)C2)cc(OC)c1OC (configuration not stated)

SMILES: COc1cc(C(=O)N2CCC(CCN3CCC(C(N)=O)(c4ccccc4)CC3)(c3ccc(Cl)cc3)C2)cc(OC)c1OC (configuration not stated)
IC50 (Substance-P receptor): 8.62 nM

logP ([1]; read-out: logP): 4.7
solubility [2]: 426 µg/mL
pKa [3]: 7.92
Relative permiability [4]: 2.1
IC50 (Substance-P receptor): 3.94 nM
pKa [5]: 6.86
logD ([6]; read-out: logD): 3.71
SMILES: COc1cc(C(=O)N2CC[C@](CCN3CCC(C(=O)N4CCN(C)CC4)(c4ccccc4)CC3)(c3ccc(Cl)c(Cl)c3)C2)cc(OC)c1OC.Cl
Relative metabolic stability (Rattus norvegicus): 0.43
inhibition in vivo at 10 mg/kg (Cavia porcellus): 31%

SMILES: COc1cc(C(=O)N2CCC(CCN3CCC(C(N)=O)(c4ccncc4)CC3)(c3ccc(Cl)c(Cl)c3)C2)cc(OC)c1OC (configuration not stated)
IC50 (Substance-P receptor): 4.88 nM

SMILES: COc1cc(C(=O)N2CCC(CCN3CCC(C(N)=O)(c4ccccc4)CC3)(c3ccc(F)cc3)C2)cc(OC)c1OC (configuration not stated)
IC50 (Substance-P receptor): 23.3 nM

SMILES: COc1cc(C(=O)N2CC[C@](CCN3CCC(C(N)=O)(c4cccnc4)CC3)(c3ccc(Cl)c(Cl)c3)C2)cc(OC)c1OC.Cl
logP [1]: 1.9
solubility [2]: 548 µg/mL
pKa [3]: 7.6
Relative permiability [4]: 0.1
IC50 (Substance-P receptor): 4.01 nM
Relative metabolic stability (Rattus norvegicus): 0.72
pKa [5]: 3.97
logD [6]: 2.59
inhibition in vivo at 10 mg/kg (Cavia porcellus): 38%

IC50 (Substance-P receptor): 8.72 nM
SMILES: COc1cc(C(=O)N2CCC(CCN3CCC(C(=O)N4CCOCC4)(c4ccccc4)CC3)(c3ccc(Cl)c(Cl)c3)C2)cc(OC)c1OC (configuration not stated)

SMILES: COc1cc(C(=O)N2CC[C@](CCN3CCC(C(N)=O)(c4ccccc4)CC3)(c3ccc(Cl)c(Cl)c3)C2)cc(OC)c1OC.Cl
logP [1]: 3.4
solubility [2]: 70 µg/mL
pKa [3]: 7.64
Relative permiability [4]: 1
IC50 (Substance-P receptor): 3.11 nM
Relative metabolic stability (Rattus norvegicus): 1
logD ([6]; read-out: logD): 3.02
inhibition in vivo at 10 mg/kg (Cavia porcellus): 60%

logP ([1]; read-out: logP): 3.2
solubility [2]: 1200 µg/mL
pKa [3]: 11.4
Relative permiability [4]: 1.2
pKa [7]: 6.71
IC50 (Substance-P receptor): 2.46 nM
pKa [5]: 7.76
logD ([6]; read-out: logD): 2.41
SMILES: COc1cc(C(=O)N2CC[C@](CCN3CCC(C(=O)N4CCN(C)CC4)(c4cccnc4)CC3)(c3ccc(Cl)c(Cl)c3)C2)cc(OC)c1OC.Cl
inhibition in vivo at 10 mg/kg (Cavia porcellus): 13%

SMILES: COc1cc(C(=O)N2CCC(CCN3CCC(C(=O)NCCN4CCOCC4)(c4ccccc4)CC3)(c3ccc(Cl)c(Cl)c3)C2)cc(OC)c1OC (configuration not stated)
IC50 (Substance-P receptor): 7.53 nM

SMILES: COc1cc(C(=O)N2CCC(CCN3CCC(C(N)=O)(c4ccccc4)CC3)(c3ccc(F)c(F)c3)C2)cc(OC)c1OC (configuration not stated)
IC50 (Substance-P receptor): 9.76 nM

SMILES: COc1cc(C(=O)N2CC[C@](CCN3CCC(C(N)=O)(c4ccncc4)CC3)(c3ccc(Cl)c(Cl)c3)C2)cc(OC)c1OC.Cl
logP [1]: 1.9
solubility [2]: 408 µg/mL
pKa [3]: 7.53
Relative permiability [4]: 0.1
IC50 (Substance-P receptor): 2.49 nM
Relative metabolic stability (Rattus norvegicus): 0.78
pKa [5]: 4.14
logD [6]: 2.64
inhibition in vivo at 10 mg/kg (Cavia porcellus): 20%

SMILES: COc1cc(C(=O)N2CCC(CCN3CCC(C(N)=O)(c4ccccc4)CC3)(c3cccc(Cl)c3)C2)cc(OC)c1OC (configuration not stated)
IC50 (Substance-P receptor): 10.7 nM

logP ([1]; read-out: logP): 4.3
solubility [2]: 25 µg/mL
pKa [3]: 7.51
Relative permiability [4]: 3.7
IC50 (Substance-P receptor): 4.34 nM
logD ([6]; read-out: logD): 3.02
SMILES: COc1cc(C(=O)N2CC[C@](CCN3CCC(C(=O)N4CCOCC4)(c4ccccc4)CC3)(c3ccc(Cl)c(Cl)c3)C2)cc(OC)c1OC.Cl
Relative metabolic stability (Rattus norvegicus): 0.77
inhibition in vivo at 10 mg/kg (Cavia porcellus): 39%

SMILES: COc1cc(C(=O)N2CCC(CCN3CCC(C(N)=O)(c4ccc(F)cc4)CC3)(c3ccc(Cl)c(Cl)c3)C2)cc(OC)c1OC (configuration not stated)
IC50 (Substance-P receptor): 13.5 nM

Source: ChEMBL document CHEMBL1130548, “Synthesis and structure-activity relationships for a series of substituted pyrrolidine NK1/NK2 receptor antagonists” (Bioorg Med Chem Lett, 1997)
